From ChEMBL document CHEMBL4428093, “One pot Click chemistry: A three component reaction for the synthesis of 2-mercaptobenzimidazole linked coumarinyl triazoles as anti-tubercular agents” (2016)
≈ marks a conversion by molar mass, not a printed value.

Experiments:
[1] = system: Mycobacterium tuberculosis; assay: Antituberculosis activity against Mycobacterium tuberculosis H37Rv after 5 days by MABA method; assay type: functional; settings: 120 h
[2] = system: Mycobacterium tuberculosis; assay: Potency index, ratio of streptomycin MIC to compound MIC for Mycobacterium tuberculosis H37Rv; assay type: functional

Compound | MIC [1] [µM] | Ratio [2]
O=c1cc(Cn2cc(CSc3nc4ccccc4[nH]3)nn2)c2cc(Cl)ccc2[nH]1 | 29.6 (≈ 12.5 µg/mL) | 
O=c1cc(Cn2cc(CSc3nc4ccccc4[nH]3)nn2)c2c(ccc3ccccc32)o1 | 14.2 (≈ 6.24 µg/mL) | 
CN[C@@H]1[C@H](O[C@H]2[C@H](O[C@H]3[C@H](O)[C@@H](O)[C@H](N=C(N)N)[C@@H](O)[C@@H]3N=C(N)N)O[C@@H](C)[C@]2(O)C=O)O[C@@H](CO)[C@H](O)[C@H]1O [STREPTOMYCIN] | 10.7 (≈ 6.22 µg/mL) | 
Cc1ccc2oc(=O)cc(Cn3cc(CSc4nc5ccccc5[nH]4)nn3)c2c1 | 7.7 (≈ 3.11 µg/mL) | 
O=c1cc(Cn2cc(CSc3nc4ccccc4[nH]3)nn2)c2ccc3ccccc3c2o1 | 28.4 (≈ 12.5 µg/mL) | 
O=c1cc(Cn2cc(CSc3nc4ccccc4[nH]3)nn2)c2ccc(O)cc2o1 | 30.8 (≈ 12.5 µg/mL) | 
Cc1ccc2c(Cn3cc(CSc4nc5ccccc5[nH]4)nn3)cc(=O)oc2c1C | 3.8 (≈ 1.59 µg/mL) | 3
Cc1cc(C)c2c(Cn3cc(CSc4nc5ccccc5[nH]4)nn3)cc(=O)oc2c1 | 3.8 (≈ 1.59 µg/mL) | 3
NC(=O)c1cnccn1 [PYRAZINAMIDE] | 25.3 (≈ 3.11 µg/mL) | 
COc1ccc2oc(=O)cc(Cn3cc(CSc4nc5ccccc5[nH]4)nn3)c2c1 | 29.8 (≈ 12.5 µg/mL) | 
Cc1ccc2c(Cn3cc(CSc4nc5ccccc5[nH]4)nn3)cc(=O)oc2c1 | 7.7 (≈ 3.11 µg/mL) | 
COc1ccc2c(Cn3cc(CSc4nc5ccccc5[nH]4)nn3)cc(=O)oc2c1 | 59.6 (≈ 25 µg/mL) | 
O=c1cc(Cn2cc(CSc3nc4ccccc4[nH]3)nn2)c2ccc(Cl)cc2o1 | 7.3 (≈ 3.09 µg/mL) | 
O=c1cc(Cn2cc(CSc3nc4ccccc4[nH]3)nn2)c2ccccc2[nH]1 | 32.2 (≈ 12.5 µg/mL) | 
Cc1cccc2c(Cn3cc(CSc4nc5ccccc5[nH]4)nn3)cc(=O)[nH]c12 | 7.7 (≈ 3.1 µg/mL) | 
O=c1cc(Cn2cc(CSc3nc4ccccc4[nH]3)nn2)c2ccc(Cl)cc2[nH]1 | 14.8 (≈ 6.26 µg/mL) | 
O=C(O)c1cn(C2CC2)c2cc(N3CCNCC3)c(F)cc2c1=O [CIPROFLOXACIN] | 9.4 (≈ 3.11 µg/mL) | 
